{"source": "patent US12077503B2", "about": "“Substituted cyclic amides and their use as herbicides” (FMC CORPORATION, priority 2015, dated 2024)", "type_in_all_cases": "in vivo", "key": {"[1]": {"test_system": "barnyardgrass (Echinochloa crus-galli)", "experiment": "Test B flooded paddy test", "conditions": "Echinochloa crus-galli, 250 g ai/ha, Flood; 0 to 100 scale where 0 is no effect and 100 is complete control; read-out: Barnyardgrass plant response rating", "outline": "(§1)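 2-leaf plants; pots flooded 3 cm over soil; cpd added to paddy water; depth held; greenhouse 13–15 d; visual rating vs controls, 0 = no effect, 100 = complete control.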"}, "rice (Oryra sativa)": {"test_system": "rice (Oryra sativa)", "experiment": "Test B flooded paddy test", "conditions": "Oryza sativa, 250 g ai/ha, Flood; 0 to 100 scale where 0 is no effect and 100 is complete control; read-out: Rice plant response rating", "outline": "as §1"}, "[2]": {"test_system": "ducksalad (Heteranthera limosa)", "experiment": "Test B flooded paddy test", "conditions": "Heteranthera limosa, 250 g ai/ha, Flood; 0 to 100 scale where 0 is no effect and 100 is complete control; read-out: Ducksalad plant response rating", "outline": "as §1"}, "[3]": {"test_system": "sedge, umbrella (small-flower umbrella sedge, Cyperus difformis)", "experiment": "Test B flooded paddy test", "conditions": "Cyperus difformis, 250 g ai/ha, Flood; 0 to 100 scale where 0 is no effect and 100 is complete control; read-out: Sedge, Umbrella plant response rating", "outline": "as §1"}, "Kochia (Kochia scoparia) [4]": {"test_system": "Kochia (Kochia scoparia)", "experiment": "Test A postemergence", "conditions": "Bassia scoparia, post-emergence, 240 h, read-out: Plant response rating, Kochia", "outline": "(§2)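 In a loam soil and sand blend, planted seeds got a preemergence directed soil spray, and young plants at the one- to two-leaf stage, 2–10 cm high, got a postemergence application; ~10 d greenhouse hold; injury rated visually, 0 = none, 100 = complete control.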"}, "[5]": {"test_system": "barnyardgrass (Echinochloa crus-galli)", "experiment": "Test A postemergence", "conditions": "Echinochloa crus-galli, post-emergence, 240 h, read-out: Plant response rating, Barnyardgrass", "outline": "as §2"}, "[6]": {"test_system": "Galium (catchweed bedstraw, Galium aparine)", "experiment": "Test A postemergence", "conditions": "Galium, post-emergence, 240 h, read-out: Plant response rating, Galium", "outline": "as §2"}, "[7]": {"test_system": "wheat (Triticum aestivum)", "experiment": "Test A postemergence", "conditions": "Triticum aestivum, post-emergence, 240 h, read-out: Plant response rating, Wheat", "outline": "as §2"}, "corn (Zea mays)": {"test_system": "corn (Zea mays)", "experiment": "Test A postemergence", "conditions": "Zea mays, post-emergence, 240 h", "outline": "as §2"}, "[8]": {"test_system": "blackgrass (Alopecurus myosuroides)", "experiment": "Test A postemergence", "conditions": "Alopecurus myosuroides, post-emergence, 240 h, read-out: Plant response rating, Blackgrass", "outline": "as §2"}, "[9]": {"test_system": "giant foxtail (Setaria faberii)", "experiment": "Test A postemergence", "conditions": "Setaria faberi, post-emergence, 240 h, read-out: Plant response rating, Foxtail, Giant", "outline": "as §2"}, "[10]": {"test_system": "ragweed (common ragweed, Ambrosia elatior)", "experiment": "Test A postemergence", "conditions": "Ambrosia artemisiifolia, post-emergence, 240 h, read-out: Plant response rating, Ragweed", "outline": "as §2"}, "[11]": {"test_system": "ryegrass, Italian (Italian ryegrass, Lolium multiflorum)", "experiment": "Test A postemergence", "conditions": "Lolium multiflorum, post-emergence, 240 h, read-out: Plant response rating, Ryegrass, Italian", "outline": "as §2"}, "[12]": {"test_system": "pigweed (Amaranthus retroflexus)", "experiment": "Test A postemergence", "conditions": "Amaranthus retroflexus, post-emergence, 240 h, read-out: Plant response rating, Pigweed", "outline": "as §2"}, "Kochia (Kochia scoparia) [13]": {"test_system": "Kochia (Kochia scoparia)", "experiment": "Test A preemergence", "conditions": "Bassia scoparia, pre-emergence, 240 h", "outline": "as §2"}, "[14]": {"test_system": "barnyardgrass (Echinochloa crus-galli)", "experiment": "Test A preemergence", "conditions": "Echinochloa crus-galli, pre-emergence, 240 h", "outline": "as §2"}, "[15]": {"test_system": "giant foxtail (Setaria faberii)", "experiment": "Test A preemergence", "conditions": "Setaria faberi, pre-emergence, 240 h", "outline": "as §2"}, "[16]": {"test_system": "ragweed (common ragweed, Ambrosia elatior)", "experiment": "Test A preemergence", "conditions": "Ambrosia artemisiifolia, pre-emergence, 240 h", "outline": "as §2"}, "[17]": {"test_system": "ryegrass, Italian (Italian ryegrass, Lolium multiflorum)", "experiment": "Test A preemergence", "conditions": "Lolium multiflorum, pre-emergence, 240 h", "outline": "as §2"}, "[18]": {"test_system": "pigweed (Amaranthus retroflexus)", "experiment": "Test A preemergence", "conditions": "Amaranthus retroflexus, pre-emergence, 240 h"}, "[19]": {"conditions": "125 g ai/ha, Postemergence, visual injury after approximately 10 d, 0 to 100 scale where 0 is no effect and 100 is complete control"}, "[20]": {"conditions": "500 g ai/ha, postemergence, visual injury, 0 to 100 scale (0 no effect, 100 complete control), approx. 10 d"}}}
{"smiles": "CSc1ccccc1NC(=O)[C@H]1C(=O)N(C)C[C@@H]1c1cc(C)c(Br)c(C)c1", "note": "[Compound 1025]", "values": [{"measurement": "pest or weed control at 250 g/ha", "setting": "[1]", "result": 0, "unit": "%"}, {"measurement": "pest or weed control at 250 g/ha", "setting": "rice (Oryra sativa)", "result": 0, "unit": "%"}, {"measurement": "pest or weed control at 250 g/ha", "setting": "[2]", "result": 0, "unit": "%"}, {"measurement": "pest or weed control at 250 g/ha", "setting": "[3]", "result": 0, "unit": "%"}, {"measurement": "pest or weed control at 125 g/ha", "setting": "Kochia (Kochia scoparia) [4]; [19]", "result": 30, "unit": "%"}, {"measurement": "pest or weed control at 500 g/ha", "setting": "Kochia (Kochia scoparia) [4]; [20]", "result": 50, "unit": "%"}, {"measurement": "pest or weed control at 125 g/ha", "setting": "[5]; [19]", "result": 60, "unit": "%"}, {"measurement": "pest or weed control at 500 g/ha", "setting": "[5]; [20]", "result": 70, "unit": "%"}, {"measurement": "pest or weed control at 125 g/ha", "setting": "[6]; [19]", "result": 30, "unit": "%"}, {"measurement": "pest or weed control at 500 g/ha", "setting": "[6]; [20]", "result": 30, "unit": "%"}, {"measurement": "plant injury at 125 g/ha", "setting": "[7]; [19]", "result": 0, "unit": "%"}, {"measurement": "plant injury at 500 g/ha", "setting": "[7]; [20]", "result": 0, "unit": "%"}, {"measurement": "Corn plant response rating (crop injury, 0 = no effect, 100 = complete kill) at 125 g/ha", "setting": "corn (Zea mays); [19]", "result": 0, "unit": "%"}, {"measurement": "Corn plant response rating (crop injury, 0 = no effect, 100 = complete kill) at 500 g/ha", "setting": "corn (Zea mays); [20]", "result": 20, "unit": "%"}, {"measurement": "pest or weed control at 125 g/ha", "setting": "[8]; [19]", "result": 0, "unit": "%"}, {"measurement": "pest or weed control at 500 g/ha", "setting": "[8]; [20]", "result": 0, "unit": "%"}, {"measurement": "pest or weed control at 125 g/ha", "setting": "[9]; [19]", "result": 60, "unit": "%"}, {"measurement": "pest or weed control at 500 g/ha", "setting": "[9]; [20]", "result": 60, "unit": "%"}, {"measurement": "pest or weed control at 125 g/ha", "setting": "[10]; [19]", "result": 0, "unit": "%"}, {"measurement": "pest or weed control at 500 g/ha", "setting": "[10]; [20]", "result": 0, "unit": "%"}, {"measurement": "pest or weed control at 125 g/ha", "setting": "[11]; [19]", "result": 0, "unit": "%"}, {"measurement": "pest or weed control at 500 g/ha", "setting": "[11]; [20]", "result": 30, "unit": "%"}, {"measurement": "pest or weed control at 125 g/ha", "setting": "[12]; [19]", "result": 0, "unit": "%"}, {"measurement": "pest or weed control at 500 g/ha", "setting": "[12]; [20]", "result": 30, "unit": "%"}, {"measurement": "pest or weed control at 125 g/ha", "setting": "Kochia (Kochia scoparia) [13]; 125 g ai/ha, Preemergence, visual injury rating after approximately 10 d, read-out: Kochia plant response rating (0 to 100 scale, 0 is no effect, 100 is complete control)", "result": 0, "unit": "%"}, {"measurement": "pest or weed control at 500 g/ha", "setting": "Kochia (Kochia scoparia) [13]; 500 g ai/ha, preemergence, visual injury rating about 10 d after treatment, 0 to 100 scale (0 no effect, 100 complete control), read-out: Kochia plant response rating", "result": 20, "unit": "%"}, {"measurement": "pest or weed control at 125 g/ha", "setting": "[14]; 125 g ai/ha, Preemergence, visual injury rating after approximately 10 d, read-out: Barnyardgrass plant response rating (0 to 100 scale, 0 is no effect, 100 is complete control)", "result": 70, "unit": "%"}, {"measurement": "pest or weed control at 500 g/ha", "setting": "[14]; 500 g ai/ha, preemergence, visual injury rating about 10 d after treatment, 0 to 100 scale (0 no effect, 100 complete control), read-out: Barnyardgrass plant response rating", "result": 70, "unit": "%"}, {"measurement": "pest or weed control at 125 g/ha", "setting": "[15]; 125 g ai/ha, Preemergence, visual injury rating after approximately 10 d, read-out: Foxtail, Giant plant response rating (0 to 100 scale, 0 is no effect, 100 is complete control)", "result": 90, "unit": "%"}, {"measurement": "pest or weed control at 500 g/ha", "setting": "[15]; 500 g ai/ha, preemergence, visual injury rating about 10 d after treatment, 0 to 100 scale (0 no effect, 100 complete control), read-out: Foxtail, Giant plant response rating", "result": 90, "unit": "%"}, {"measurement": "pest or weed control at 125 g/ha", "setting": "[16]; 125 g ai/ha, Preemergence, visual injury rating after approximately 10 d, read-out: Ragweed plant response rating (0 to 100 scale, 0 is no effect, 100 is complete control)", "result": 0, "unit": "%"}, {"measurement": "pest or weed control at 500 g/ha", "setting": "[16]; 500 g ai/ha, preemergence, visual injury rating about 10 d after treatment, 0 to 100 scale (0 no effect, 100 complete control), read-out: Ragweed plant response rating", "result": 0, "unit": "%"}, {"measurement": "pest or weed control at 125 g/ha", "setting": "[17]; 125 g ai/ha, Preemergence, visual injury rating after approximately 10 d, read-out: Ryegrass, Italian plant response rating (0 to 100 scale, 0 is no effect, 100 is complete control)", "result": 0, "unit": "%"}, {"measurement": "pest or weed control at 500 g/ha", "setting": "[17]; 500 g ai/ha, preemergence, visual injury rating about 10 d after treatment, 0 to 100 scale (0 no effect, 100 complete control), read-out: Ryegrass, Italian plant response rating", "result": 30, "unit": "%"}, {"measurement": "pest or weed control at 125 g/ha", "setting": "[18]; 125 g ai/ha, Preemergence, visual injury rating after approximately 10 d, read-out: Pigweed plant response rating (0 to 100 scale, 0 is no effect, 100 is complete control)", "result": 0, "unit": "%"}, {"measurement": "pest or weed control at 500 g/ha", "setting": "[18]; 500 g ai/ha, preemergence, visual injury rating about 10 d after treatment, 0 to 100 scale (0 no effect, 100 complete control), read-out: Pigweed plant response rating", "result": 50, "unit": "%"}]}
